Target: T1, Glutamate carboxypeptidase 2 (Homo sapiens, UniProt Q04609)
Assay: Inhibition of human cloned glutamate carboxypeptidase 2

T1 sequence (Q04609 whole entry): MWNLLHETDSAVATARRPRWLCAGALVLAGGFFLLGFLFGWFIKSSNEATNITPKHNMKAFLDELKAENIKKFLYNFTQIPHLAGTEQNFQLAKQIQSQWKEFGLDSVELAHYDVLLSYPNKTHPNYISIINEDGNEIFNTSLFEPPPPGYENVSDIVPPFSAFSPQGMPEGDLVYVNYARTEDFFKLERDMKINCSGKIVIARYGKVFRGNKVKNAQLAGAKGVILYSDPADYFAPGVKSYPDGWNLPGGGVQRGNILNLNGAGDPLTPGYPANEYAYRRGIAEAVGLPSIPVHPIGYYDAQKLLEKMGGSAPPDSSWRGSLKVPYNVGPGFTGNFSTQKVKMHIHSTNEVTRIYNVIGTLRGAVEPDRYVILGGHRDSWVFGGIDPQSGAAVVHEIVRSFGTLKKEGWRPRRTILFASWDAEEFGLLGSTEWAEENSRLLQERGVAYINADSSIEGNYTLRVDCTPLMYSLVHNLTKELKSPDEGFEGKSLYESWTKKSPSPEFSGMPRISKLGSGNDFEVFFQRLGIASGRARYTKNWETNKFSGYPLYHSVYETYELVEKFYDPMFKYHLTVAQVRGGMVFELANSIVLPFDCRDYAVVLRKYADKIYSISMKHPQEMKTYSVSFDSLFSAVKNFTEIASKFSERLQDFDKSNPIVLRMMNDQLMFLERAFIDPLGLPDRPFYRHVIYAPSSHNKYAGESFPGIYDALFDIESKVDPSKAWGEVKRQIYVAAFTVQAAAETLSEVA

Compared with `COc1cc(C(NC(=O)N[C@@H](CCCCNC(=O)c2ccc(I)cc2)C(=O)O)C(=O)O)ccc1O` (some centres undefined), `O=C(N[C@@H](CCCCNC(=O)c1ccc(I)cc1)C(=O)O)N[C@H](C(=O)O)c1ccc(O)cc1` is 3.3-fold lower in Ki: 0.285 µM for the first, 0.0851 µM for the second. The second binds more tightly here.

Going from `O=C(N[C@@H](CCCCNC(=O)c1ccc(I)cc1)C(=O)O)N[C@H](Cc1ccco1)C(=O)O` to `O=C(N[C@@H](CCCCNC(=O)c1ccc(I)cc1)C(=O)O)N[C@@H](Cc1ccco1)C(=O)O`, the Ki falls from 0.794 µM to 0.0053 µM (150-fold). The second binds more tightly here.

Going from `O=C(N[C@@H](CCCCNC(=O)c1ccc(I)cc1)C(=O)O)N[C@H](Cc1cccs1)C(=O)O` to `O=C(N[C@@H](CCCCNC(=O)c1ccc(I)cc1)C(=O)O)N[C@@H](Cc1cccs1)C(=O)O`, the Ki falls from 0.795 µM to 0.0162 µM (49-fold).

First: O=C(N[C@@H](CCCCNC(=O)c1ccc(I)cc1)C(=O)O)NC1(C(=O)O)CC1
Second: O=C(O)CNC(=O)N[C@@H](CCCCNC(=O)c1ccc(I)cc1)C(=O)O
The Ki of the first is 4.2-fold lower: 0.318 µM for the first, 1.32 µM for the second. The first binds more tightly here.

Going from `O=C(N[C@@H](CCCCNC(=O)c1ccc(I)cc1)C(=O)O)N[C@@H](Cc1cscn1)C(=O)O` to `O=C(N[C@@H](CCCCNC(=O)c1ccc(I)cc1)C(=O)O)N[C@@H](Cc1ccncc1)C(=O)O`, the Ki rises from 0.0161 µM to 0.105 µM (6.5-fold). The first binds more tightly here.

Going from `NC(=O)C[C@H](NC(=O)N[C@@H](CCCCNC(=O)c1ccc(I)cc1)C(=O)O)C(=O)O` to `N#CC[C@H](NC(=O)N[C@@H](CCCCNC(=O)c1ccc(I)cc1)C(=O)O)C(=O)O`, the Ki falls from 0.32 µM to 0.132 µM (2.4-fold). The second binds more tightly here.

Going from `CCC[C@H](NC(=O)N[C@@H](CCCCNC(=O)c1ccc(I)cc1)C(=O)O)C(=O)O` to `C#CC[C@H](NC(=O)N[C@@H](CCCCNC(=O)c1ccc(I)cc1)C(=O)O)C(=O)O`, the Ki falls from 0.0523 µM to 0.0053 µM (9.9-fold).

First: CC(=O)SCCC[C@H](NC(=O)N[C@@H](CCCCNC(=O)c1ccc(I)cc1)C(=O)O)C(=O)O
Second: O=C(N[C@@H](CCCCNC(=O)c1ccc(I)cc1)C(=O)O)N[C@@H](CC1CO1)C(=O)O (some centres undefined)
The Ki of the first is 11-fold lower: 0.0241 µM for the first, 0.254 µM for the second. The first binds more tightly here.

Compared with `O=C(N[C@@H](CCCCNC(=O)c1ccc(I)cc1)C(=O)O)N[C@@H](Cc1cccnc1)C(=O)O`, `O=C(O)CCCNC(=O)N[C@@H](CCCCNC(=O)c1ccc(I)cc1)C(=O)O` is 35-fold higher in Ki: 0.0972 µM for the first, 3.43 µM for the second. The first binds more tightly here.

Target: T1, Glutamate carboxypeptidase 2
Assay: Inhibition of glutamate carboxypeptidase 2 in human LNCaP cells by fluorescence based NAALADase assay
Format: cell-based

Going from `CC(C)C[C@H](NC(=O)NC(C(=O)O)c1cc(O)cc(O)c1)C(=O)O` (some centres undefined) to `CC(C)C[C@H](NC(=O)NC(C(=O)O)c1cccc(O)c1)C(=O)O` (some centres undefined), the Ki rises from 13 µM to greater than 1000 µM.

First: CC(C)C[C@H](NC(=O)NC(C(=O)O)c1ccc(O)c(I)c1)C(=O)OC(C)C (some centres undefined)
Second: COC(=O)[C@H](CC(C)C)NC(=O)N[C@H](C(=O)O)c1ccc(O)c(I)c1
The Ki of the first is 1.7-fold lower: 0.275 µM for the first, 0.475 µM for the second.

`CC(C)C[C@H](NC(=O)N[C@H](C(=O)O)c1ccc(O)cc1)C(=O)O` and `CC(C)C[C@H](NC(=O)N[C@@H](Cc1ccc(O)cc1)C(=O)O)C(=O)O` are within 1.5-fold of each other in Ki: 0.775 µM for the first, 0.7 µM for the second.

First: CC(C)C[C@H](NC(=O)N[C@@H](Cc1cccc(C(=O)O)c1)C(=O)O)C(=O)O
Second: COC(=O)[C@H](CC(C)C)NC(=O)N[C@@H](Cc1cccc(C(=O)O)c1)C(=O)O
The Ki of the first is lower: 3 µM for the first, greater than 1000 µM for the second.

`COC(=O)[C@H](CC(C)C)NC(=O)N[C@H](C(=O)O)c1cc(Br)c(O)c(Br)c1` and `COC(=O)[C@H](CC(C)C)NC(=O)N[C@H](C(=O)O)c1ccc(O)c(Br)c1` are within 1.5-fold of each other in Ki: 0.575 µM for the first, 0.4 µM for the second.

First: CSCCC[C@H](NC(=O)N[C@@H](CC(C)C)C(=O)O)C(=O)O
Second: COC(=O)[C@H](CC(C)C)NC(=O)N[C@@H](CCCSC)C(=O)O
The Ki of the first is lower: 3.5 µM for the first, greater than 1000 µM for the second. The first binds more tightly here.

First: COC(=O)[C@H](CC(C)C)NC(=O)NC(C(=O)O)c1ccc(O)c(OC)c1 (some centres undefined)
Second: COC(=O)[C@H](CC(C)C)NC(=O)NC(C(=O)O)c1ccc(F)c(OC)c1 (some centres undefined)
The Ki of the first is lower: 0.153 µM for the first, greater than 1000 µM for the second.

`COC(=O)[C@H](CC(C)C)NC(=O)N[C@@H](Cc1cccc(O)c1)C(=O)O` and `COC(=O)[C@H](CC(C)C)NC(=O)NC(C(=O)O)c1cccc(O)c1` (some centres undefined) cannot be ordered by Ki: greater than 1000 µM for the first, greater than 1000 µM for the second.

First: COC(=O)[C@H](CC(C)C)NC(=O)NC(C(=O)O)c1ccc(O)c(F)c1 (some centres undefined)
Second: COc1cc(C(NC(=O)N[C@@H](CC(C)C)C(=O)O)C(=O)O)ccc1O (some centres undefined)
The Ki of the first is 12-fold higher: 3 µM for the first, 0.25 µM for the second. The second binds more tightly here.

Compared with `COc1cc(C(NC(=O)N[C@@H](CC(C)C)C(=O)OC(C)C)C(=O)O)ccc1O` (some centres undefined), `CC(C)C[C@H](NC(=O)N[C@@H](Cc1ccc(O)c(I)c1)C(=O)O)C(=O)O` is 160-fold higher in Ki: 0.081 µM for the first, 13 µM for the second. The first binds more tightly here.

Work on `COC(=O)[C@H](CC(C)C)NC(=O)N[C@@H](CCC(N)=O)C(=O)O` yielded a Ki of 7.5 µM.

From ChEMBL document CHEMBL1153103, “Bioisosterism of urea-based GCPII inhibitors: Synthesis and structure-activity relationship studies” (Bioorg Med Chem Lett, 2010)
